Source: patent US9376700B2, “Methods of modifying N-termini of a peptide or protein using transferases” (The Trustees of the University of Pennsylvania, priority 2012, dated 2016)

Target: E. coli aminoacyl transferase (AaT) (Escherichia coli, UniProt P0A8P1)
Assay: LysAlaAcm ligation assay: AaT-catalyzed transfer from aminoacyl adenosine donor to LysAlaAcm, HPLC at 325 nm
Format: biochemical
Parameters: made in house; host or cells: E. coli BL21-Gold (DE3), plasmid pEG6, Ni-NTA purified
Details: for Transfer to LysAlaAcm by AaT (in words): reactions analyzed after 4 h; for Ligated Product Yield (%): 4 h
Experimental: Each ligation reaction, 125 μL total volume, contained the following reagents: aminoacyl adenosine donor (1 mM), recombinant His10-tagged E. coli aminoacyl transferase (2.26 μM), and LysAlaAcm (100 μM) in the AaT Ligation Buffer (50 mM HEPES pH 8.0, 150 mm KCl, 10 mM MgCl2). The reaction mixtures were incubated at 37° C. for four hours and quenched with 1% acetic acid. The proteins were extracted from the reactions via acetone precipitation. The reactions were precipitated using 4× reaction volume of acetone and cooled at −20° C. for 1 h. Next, the reactions were centrifuged at 13,200 rpm at 4° C. for 20 min to separate the reaction from precipitated protein. The supernatant was transferred to fresh 1.5 mL centrifuge tubes and allowed for acetone evaporation overnight at room temperature. After acetone evaporation, the supernatant was dried in a Speedvac (Savant, Thermo Scientific, Fisher Inc.) for 30 min to remove residual acetone. The resulting reaction volume was dissolved up to 1.2 mL using Milli-Q water and analyzed by HPLC (gradient below) to determine ligation yield by integration of separated peak intensities monitored at 325 nm. Collected HPLC fractions were characterized through MALDI MS analysis. […] Reactions using Phe-pdCpA as donor were carried out in an identical fashion (Ellman, et al., 1991, Methods Enzymol. 202:301-336).
All HPLC analyses of LysAlaAcm ligations were monitored on an Agilent HPLC using a Waters C18 column (Milford, Mass.).
All HPLC analyses of LysAlaAcm ligations were monitored as described elsewhere herein (Gradient 1).
The extent of transfer was evaluated by HPLC analysis of reactions with adenosyl donor, AaT or BpT, and an aminocoumarin-labeled reporter peptide (for AaT, LysAlaAcm was used as previously described by Tirrell and co-workers; for BpT, AspAlaAcm was used in an analogous fashion) (Connor et al., 2008, ChemBioChem 9:366-369). Monitoring LysAlaAcm or AspAlaAcm acylation in crude reaction mixtures using absorbance at 325 nm conveniently eliminates background due to other proteins and nucleic acids, although some non-natural amino acids such as naphthylalanine (Nap) and methoxycoumarinylalanine (Mcm) also absorb in this range.
To evaluate substrate scope, reactions were analyzed after 4 h, when transfer should be complete for the fully enzymatic reaction with Phe tRNA synthetase (Connor et al., 2008, ChemBioChem 9:366-369).

[1] = single addition of 1 mM donor, 100 μM LysAlaAcm, 2.26 μM AaT, 37° C., no additive

Chain of E. coli aminoacyl transferase (AaT) (P0A8P1 whole entry): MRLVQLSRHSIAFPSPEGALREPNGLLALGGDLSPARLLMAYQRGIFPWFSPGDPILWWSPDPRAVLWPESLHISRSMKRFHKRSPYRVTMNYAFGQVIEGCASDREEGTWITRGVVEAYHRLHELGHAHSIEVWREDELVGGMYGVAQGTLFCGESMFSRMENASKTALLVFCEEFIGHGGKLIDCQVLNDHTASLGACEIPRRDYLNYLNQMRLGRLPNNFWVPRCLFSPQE

Row | Molecule | Transfer to LysAlaAcm by AaT (in words) | Ligated Product Yield (%) [1] | Product inhibition of NapLysAlaAcm (5d) production from Nap-A (4d) (100 μM (1 equiv) added, standard 4 h transfer assay) | Ligated Product Yield (%) (single addition of donor, additive 100 μM PheLysAlaAcm)
1 | CN[C@@H](Cc1ccccc1)C(=O)O[C@@H]1[C@H](O)[C@@H](CO)O[C@H]1n1cnc2c(N)ncnc21 [4e, (S)-(2R,3R,4R,5R)-2-(6-amino-9H-purin-9-yl)-4-hydroxy-5-(hydroxymethyl)tetrahydrofuran-3-yl 2-(methylamino)-3-phenylpropanoate] | transferred, albeit with low yield | 0.6 ± 0.1% |  | 
2 | PheLysAlaAcm |  |  | did not significantly inhibit | 
3 | CSCC[C@H](N)C(=O)O[C@@H]1[C@H](O)[C@@H](CO)O[C@H]1n1cnc2c(N)ncnc21 [4j, (S)-(2R,3R,4R,5R)-2-(6-amino-9H-purin-9-yl)-4-hydroxy-5-(hydroxymethyl)tetrahydrofuran-3-yl 2-amino-4-(methylthio)butanoate] |  | 21.9% |  | 
4 | COc1ccc2c(C[C@H](N)C(=O)O[C@@H]3[C@H](O)[C@@H](CO)O[C@H]3n3cnc4c(N)ncnc43)cc(=O)oc2c1 [4h, (S)-(2R,3R,4R,5R)-2-(6-amino-9H-purin-9-yl)-4-hydroxy-5-(hydroxymethyl)tetrahydrofuran-3-yl 2-amino-3-(7-methoxy-2-oxo-2H-chromen-4-yl)propanoate] | too large | 5h not observed |  | 
5 | CSSCC[C@H](N)C(=O)O[C@@H]1[C@H](O)[C@@H](CO)O[C@H]1n1cnc2c(N)ncnc21 [4n, (S)-(2R,3R,4R,5R)-2-(6-amino-9H-purin-9-yl)-4-hydroxy-5-(hydroxymethyl)tetrahydrofuran-3-yl 2-amino-4-(methyldisulfanyl)butanoate] |  | 27.8% |  | 
6 | Nc1ncnc2c1ncn2[C@@H]1O[C@H](CO)[C@@H](O)[C@H]1OC(=O)[C@@H](N)Cc1ccc(C(=O)c2ccccc2)cc1 [4i, (S)-(2R,3R,4R,5R)-2-(6-amino-9H-purin-9-yl)-4-hydroxy-5-(hydroxymethyl)tetrahydrofuran-3-yl 2-amino-3-(4-benzoylphenyl)propanoate] | poor substrate | 9.2 ± 0.3% |  | 
7 | CSSC[C@H](N)C(=O)O[C@@H]1[C@H](O)[C@@H](CO)O[C@H]1n1cnc2c(N)ncnc21 [4k, (R)-(2R,3R,4R,5R)-2-(6-amino-9H-purin-9-yl)-4-hydroxy-5-(hydroxymethyl)tetrahydrofuran-3-yl 2-amino-3-(methyldisulfanyl)propanoate] |  | 20.1% |  | 
8 | CC(=O)N[C@@H](Cc1ccccc1)C(=O)O[C@@H]1[C@H](O)[C@@H](CO)O[C@H]1n1cnc2c(N)ncnc21 [4f, (S)-(2R,3R,4R,5R)-2-(6-amino-9H-purin-9-yl)-4-hydroxy-5-(hydroxymethyl)tetrahydrofuran-3-yl 2-acetamido-3-phenylpropanoate] | poor substrates | 5f not observed |  | 
9 | Nc1ncnc2c1ncn2[C@@H]1O[C@H](CO)[C@@H](O)[C@H]1OC(=O)[C@@H](N)Cc1ccc2ccccc2c1 [4d, (S)-(2R,3R,4R,5R)-2-(6-amino-9H-purin-9-yl)-4-hydroxy-5-(hydroxymethyl)tetrahydrofuran-3-yl 2-amino-3-(naphthalen-2-yl)propanoate] |  | 95.4 ± 0.4% |  | 93.8 ± 0.3
10 | [N-]=[N+]=N[C@@H](Cc1ccccc1)C(=O)O[C@@H]1[C@H](O)[C@@H](CO)O[C@H]1n1cnc2c(N)ncnc21 [4g, (S)-(2R,3R,4R,5R)-2-(6-amino-9H-purin-9-yl)-4-hydroxy-5-(hydroxymethyl)tetrahydrofuran-3-yl 2-azido-3-phenylpropanoate] | poor substrates | 5g not observed^c |  | 
